Measured values taken from PubChem BioAssay AID256 (DTP/NCI, 2004).
Values joined by “and” are separate entries in the source; they are usually repeats but may differ in a detail not shown here. Identical values can stand only once. Toxic doses and inconclusive results are not listed. Rule for the calls: active = survival T/C of 150% or more; inactive = T/C below 125% in these data.

Test system: CD2F1 mice, L1210 leukemia ip, survival T/C
Test: NCI In Vivo Anticancer Drug Screen. Data for tumor model L1210 Leukemia (intraperitoneal) in CD2F1 (CDF1) mice
Conditions: higher = longer survival
Outline: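 Mice carrying a transplanted tumor received test compound or vehicle alone. The value is the measurement in the treated group divided by that in the vehicle-treated control group.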

[1] = endpoint: mean survival time, dose: 100.0 mg/kg/injection, schedule: Q01DX001 (ip), vehicle: saline
[2] = endpoint: mean survival time, dose: 200.0 mg/kg/injection, schedule: Q01DX001 (ip), vehicle: saline
[3] = endpoint: mean survival time, dose: 400.0 mg/kg/injection, schedule: Q01DX001 (ip), vehicle: saline
[4] = endpoint: mean survival time, dose: 100.0 mg/kg/injection, schedule: Q04DX003 (ip), vehicle: saline with Tween-80
[5] = endpoint: mean survival time, dose: 200.0 mg/kg/injection, schedule: Q04DX003 (ip), vehicle: saline with Tween-80
[6] = endpoint: mean survival time, dose: 12.5 mg/kg/injection, schedule: Q01DX009 (ip), vehicle: saline with Tween-80
[7] = endpoint: mean survival time, dose: 25.0 mg/kg/injection, schedule: Q01DX009 (ip), vehicle: saline with Tween-80
[8] = endpoint: mean survival time, dose: 50.0 mg/kg/injection, schedule: Q01DX009 (ip), vehicle: saline with Tween-80
[9] = endpoint: mean survival time, dose: 100.0 mg/kg/injection, schedule: Q01DX009 (ip), vehicle: saline with Tween-80
[10] = endpoint: mean survival time, dose: 200.0 mg/kg/injection, schedule: Q01DX009 (ip), vehicle: saline with Tween-80
[11] = endpoint: mean survival time, dose: 400.0 mg/kg/injection, schedule: Q01DX009 (ip), vehicle: saline with Tween-80
[12] = endpoint: mean survival time, dose: 100.0 mg/kg/injection, schedule: Q04DX002 (ip), vehicle: saline with Tween-80
[13] = endpoint: mean survival time, dose: 200.0 mg/kg/injection, schedule: Q04DX002 (ip), vehicle: saline with Tween-80
[14] = endpoint: mean survival time, dose: 100.0 mg/kg/injection, schedule: Q04DX003 (ip), vehicle: saline
[15] = endpoint: mean survival time, dose: 200.0 mg/kg/injection, schedule: Q04DX003 (ip), vehicle: saline
[16] = endpoint: mean survival time, dose: 400.0 mg/kg/injection, schedule: Q04DX003 (ip), vehicle: saline
[17] = endpoint: mean survival time, dose: 100.0 mg/kg/injection, schedule: Q01DX009 (ip), vehicle: saline
[18] = endpoint: mean survival time, dose: 200.0 mg/kg/injection, schedule: Q01DX009 (ip), vehicle: saline
[19] = endpoint: mean survival time, dose: 400.0 mg/kg/injection, schedule: Q01DX009 (ip), vehicle: saline
[20] = endpoint: mean survival time, dose: 100.0 mg/kg/injection, schedule: Q04DX002 (ip), vehicle: saline
[21] = endpoint: mean survival time, dose: 200.0 mg/kg/injection, schedule: Q04DX002 (ip), vehicle: saline
[22] = endpoint: mean survival time, dose: 400.0 mg/kg/injection, schedule: Q04DX002 (ip), vehicle: saline
[23] = endpoint: mean survival time, dose: 50.0 mg/kg/injection, schedule: Q01DX001 (ip), vehicle: saline with Tween-80
[24] = endpoint: mean survival time, dose: 100.0 mg/kg/injection, schedule: Q01DX001 (ip), vehicle: saline with Tween-80

Measured: T/C

CN1C(=O)CN=C(c2ccccn2)c2cc(Cl)ccc21
inactive: endpoint: mean survival time, dose: 100.0 mg/kg/injection, schedule: Q01DX009 (ip), vehicle: saline sonified 97 % of control | endpoint: mean survival time, dose: 200.0 mg/kg/injection, schedule: Q01DX009 (ip), vehicle: saline sonified 90 % of control | endpoint: mean survival time, dose: 400.0 mg/kg/injection, schedule: Q01DX009 (ip), vehicle: saline sonified 102 % of control

C/C(Cl)=C\CSc1ccccc1
inactive: [1] 100 % of control | [2] 100 % of control | [3] 101 % of control

COc1ccc2c(c1)c1c(C)c3cnccc3c(C)c1n2CCO
inactive: [4] 112 % of control | [5] 115 % of control

CN1C(=O)C(=Cc2ccc(O)cc2)C(=O)N(C)C1=O
inactive: [6] 96 % of control and 100 % of control | [7] 102 % of control and 107 % of control | [8] 100 % of control and 108 % of control | [9] 104 % of control and 111 % of control | [10] 102 % of control and 106 % of control | [11] 106 % of control and 111 % of control

NCCN.[Ni+2].[O-]c1ccccc1[O-].[O-]c1ccccc1[O-]
inactive: endpoint: mean survival time, dose: 0.78 mg/kg/injection, schedule: Q01DX009 (ip), vehicle: other 96 % of control | endpoint: mean survival time, dose: 1.56 mg/kg/injection, schedule: Q01DX009 (ip), vehicle: other 93 % of control | endpoint: mean survival time, dose: 3.13 mg/kg/injection, schedule: Q01DX009 (ip), vehicle: other 108 % of control | endpoint: mean survival time, dose: 6.25 mg/kg/injection, schedule: Q01DX009 (ip), vehicle: other 112 % of control | endpoint: mean survival time, dose: 12.5 mg/kg/injection, schedule: Q01DX009 (ip), vehicle: other 98 % of control

CCCCCCCCCCCCNCCC#N
inactive: [7] 100 % of control | [8] 101 % of control | [9] 95 % of control | [4] 93 % of control | [5] 87 % of control

CCn1c(C)cc(=O)c2ccccc21
inactive: [12] 105 % of control | [13] 94 % of control

CC1CN=C(c2ccc(NC(=O)Nc3ccc(NC(=O)c4ccc(C5=NCC(C)N5)cc4)cc3)cc2)N1 (stereo unspecified)
inactive: endpoint: mean survival time, dose: 26.0 mg/kg/injection, schedule: Q01DX Z (ip), vehicle: water 90 % of control

N#CC(CCC(=O)O)(CCC(=O)O)c1ccccc1
inactive: [9] 96 % of control | [10] 96 % of control | [11] 96 % of control

CCNCCNc1ccc(NCCNCC)c2c1C(=O)c1ccccc1C2=O
inactive: endpoint: mean survival time, dose: 2.0 mg/kg/injection, schedule: Q01DX009 (ip), vehicle: acid diluted with saline 122 % of control | endpoint: mean survival time, dose: 4.0 mg/kg/injection, schedule: Q01DX009 (ip), vehicle: acid diluted with saline 122 % of control and 123 % of control

COCCCNC(=O)CS(=O)(=O)c1ccc(C)cc1
inactive: [14] 102 % of control | [15] 98 % of control | [16] 102 % of control

c1cnc2c(c1)CCCC2
inactive: [6] 95 % of control | [7] 91 % of control | [8] 87 % of control

CCCCCCCCCCCCCCCCOc1ccc(S(=O)(=O)N(C)C)cc1[N+](=O)[O-]
inactive: [4] 90 % of control | [5] 96 % of control | endpoint: mean survival time, dose: 400.0 mg/kg/injection, schedule: Q04DX003 (ip), vehicle: saline with Tween-80 90 % of control

CCCCNC(C)(C)C(SSSC(c1ccc(Cl)cc1)C(C)(C)NCCCC)c1ccc(Cl)cc1 (stereo unspecified)
inactive: endpoint: mean survival time, dose: 12.0 mg/kg/injection, schedule: Q04DX003 (ip), vehicle: other 97 % of control | endpoint: mean survival time, dose: 25.0 mg/kg/injection, schedule: Q04DX003 (ip), vehicle: other 105 % of control | endpoint: mean survival time, dose: 50.0 mg/kg/injection, schedule: Q04DX003 (ip), vehicle: other 96 % of control

F[Si](c1ccc(Br)cc1)(c1ccc(Br)cc1)c1ccc(Br)cc1
inactive: [8] 102 % of control | [9] 94 % of control | [4] 95 % of control | [5] 93 % of control

COc1ccc(/C(C#N)=C2\OC(=O)c3ccccc32)cc1OC
inactive: endpoint: mean survival time, dose: 50.0 mg/kg/injection, schedule: Q01DX009 (ip), vehicle: saline 93 % of control | [17] 94 % of control | [18] 94 % of control | [19] 94 % of control

O=C(O)C1Cc2nc[nH]c2CN1CO (stereo unspecified)
inactive: [6] 100 % of control | [7] 100 % of control and 102 % of control | [8] 100 % of control | [9] 104 % of control and 109 % of control | [10] 108 % of control | [11] 108 % of control and 109 % of control

CCCCCC(C)NCCO (stereo unspecified)
inactive: endpoint: mean survival time, dose: 75.0 mg/kg/injection, schedule: Q01DX001 (ip), vehicle: saline 98 % of control

O=C(Nc1ccccc1)O/N=C(/c1ccccc1)c1ccccn1
inactive: endpoint: mean survival time, dose: 100.0 mg/kg/injection, schedule: Q01DX001 (ip), vehicle: other 104 % of control | endpoint: mean survival time, dose: 200.0 mg/kg/injection, schedule: Q01DX001 (ip), vehicle: other 98 % of control | endpoint: mean survival time, dose: 400.0 mg/kg/injection, schedule: Q01DX001 (ip), vehicle: other 101 % of control

CC(=O)C(C)(C)C
inactive: [20] 96 % of control | [21] 104 % of control | [22] 104 % of control

O=c1[nH]cc(S)c(=O)[nH]1
inactive: [12] 106 % of control | [13] 97 % of control | endpoint: mean survival time, dose: 400.0 mg/kg/injection, schedule: Q04DX002 (ip), vehicle: saline with Tween-80 106 % of control

O=C(Cn1[nH]c(=O)ccc1=O)c1ccccc1
inactive: endpoint: mean survival time, dose: 12.5 mg/kg/injection, schedule: Q04DX002 (ip), vehicle: saline with Tween-80 95 % of control | endpoint: mean survival time, dose: 25.0 mg/kg/injection, schedule: Q04DX002 (ip), vehicle: saline with Tween-80 100 % of control | endpoint: mean survival time, dose: 50.0 mg/kg/injection, schedule: Q04DX002 (ip), vehicle: saline with Tween-80 91 % of control and 92 % of control | [13] 94 % of control

COc1ccc(/C=N/N=C(/C(=O)c2ccc(OC)cc2)c2ccc(OC)cc2)cc1
inactive: [1] 95 % of control | [14] 102 % of control | [2] 91 % of control | [15] 97 % of control | [3] 95 % of control | [16] 96 % of control

O=C(Nc1cccc2ccccc12)OC1CCCCC1Br (stereo unspecified)
inactive: endpoint: mean survival time, dose: 6.25 mg/kg/injection, schedule: Q01DX001 (ip), vehicle: saline with Tween-80 100 % of control | endpoint: mean survival time, dose: 12.5 mg/kg/injection, schedule: Q01DX001 (ip), vehicle: saline with Tween-80 92 % of control | endpoint: mean survival time, dose: 25.0 mg/kg/injection, schedule: Q01DX001 (ip), vehicle: saline with Tween-80 100 % of control | [23] 93 % of control | [24] 89 % of control

CCCCCC(=O)/C=C/Sc1n[nH]c(=O)[nH]c1=O
inactive: endpoint: mean survival time, dose: 12.5 mg/kg/injection, schedule: Q01DX005 (ip), vehicle: distilled water + Tween-80 96 % of control | endpoint: mean survival time, dose: 25.0 mg/kg/injection, schedule: Q01DX005 (ip), vehicle: distilled water + Tween-80 100 % of control | endpoint: mean survival time, dose: 50.0 mg/kg/injection, schedule: Q01DX005 (ip), vehicle: distilled water + Tween-80 104 % of control

O=C(NNC(=O)OCC(Cl)(Cl)Cl)OCC(Cl)(Cl)Cl
inactive: [4] 102 % of control

CCCCCCCCCCOCCCCCCCCCC
inactive: [17] 95 % of control | [14] 94 % of control | [18] 98 % of control | [15] 101 % of control | [19] 97 % of control | [16] 94 % of control

NC(=N\O)/C(N)=N/O.[Cl][Pt][Cl]
inactive: endpoint: median survival time, dose: 3.12 mg/kg/injection, schedule: Q04DX003 (ip), vehicle: saline 100 % of control | endpoint: median survival time, dose: 6.25 mg/kg/injection, schedule: Q04DX003 (ip), vehicle: saline 103 % of control | endpoint: median survival time, dose: 12.5 mg/kg/injection, schedule: Q04DX003 (ip), vehicle: saline 97 % of control | endpoint: median survival time, dose: 25.0 mg/kg/injection, schedule: Q04DX003 (ip), vehicle: saline 103 % of control | endpoint: median survival time, dose: 50.0 mg/kg/injection, schedule: Q04DX003 (ip), vehicle: saline 109 % of control | endpoint: median survival time, dose: 100.0 mg/kg/injection, schedule: Q04DX003 (ip), vehicle: saline 112 % of control | endpoint: median survival time, dose: 200.0 mg/kg/injection, schedule: Q04DX003 (ip), vehicle: saline 123 % of control

O=C1NC(=NC2CCCCC2)C2(CCNCC2)N1c1ccccc1
inactive: [23] 102 % of control | [24] 106 % of control | endpoint: mean survival time, dose: 200.0 mg/kg/injection, schedule: Q01DX001 (ip), vehicle: saline with Tween-80 104 % of control

[Co].[NH-]CC[NH-].[NH-]CC[NH-].[NH-]CC[S-]
inactive: [20] 112 % of control | [21] 101 % of control | [22] 104 % of control
